# Results from patent US20260226068A1, “IMIDAZOTRIAZINE IL-17A MODULATORS AND USES THEREOF” (DICE ALPHA, INC., priority 2023, published 2026).
# Assays:
# IL-17A/A = molecular target: T1, IL-17A/A (Homo sapiens, UniProt Q16552); test: IL-17A/A HEK-Blue cell assay (SEAP reporter); assay type: cell-based; conditions: HEK-Blue IL-17A reporter cells, IL17A/A 5 ng/mL, 20 hours, SEAP read at A630; read-out: HEK-Blue IL17AA (IC50 for IL-17A/A inhibition)
# T1 construct: purchased Genscript Z03228
# T1 sequence (Q16552 24-155): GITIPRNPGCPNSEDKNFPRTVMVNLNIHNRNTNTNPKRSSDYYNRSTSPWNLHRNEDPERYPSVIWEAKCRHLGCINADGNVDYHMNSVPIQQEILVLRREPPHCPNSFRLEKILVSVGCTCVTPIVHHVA
# IL-17A/F = molecular target: T2, IL-17A/F (Homo sapiens, UniProt Q16552+Q96PD4); test: IL-17A/F HEK-Blue cell assay (SEAP reporter); assay type: cell-based; conditions: HEK-Blue IL-17A reporter cells, IL17A/F 5 ng/mL, 20 hours, SEAP read at A630; read-out: HEK-Blue IL17AF (IC50 for IL-17A/F inhibition)
# T2 construct: purchased R&D Systems
# T2 sequence (Q16552 24-155): T1 sequence (Q16552 24-155)
# T2 sequence (Q96PD4 31-163): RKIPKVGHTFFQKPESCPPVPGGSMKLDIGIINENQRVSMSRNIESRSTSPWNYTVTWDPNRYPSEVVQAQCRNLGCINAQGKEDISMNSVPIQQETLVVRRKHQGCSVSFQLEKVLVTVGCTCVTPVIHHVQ
IC50 (IL-17A/A) [nM],IC50 (IL-17A/F) [nM],Compound
< 100,> 1000,"CCn1nccc1C(=O)N[C@@H](COC(C)(C)C(F)(F)F)c1cn2nc(C[C@H]3C[C@@H](C(F)(F)F)CNC3=O)c(C3CCOCC3)nc2n1 (single isomer, unassigned) [Compound 159]"
< 100,100 to 1000,"CCn1nccc1C(=O)N[C@@H](CCC(C)(C)C(F)(F)F)c1cn2nc(C[C@H]3C[C@@H](C(F)(F)F)CNC3=O)c(C3CCOCC3)nc2n1 (single isomer, unassigned) [Compound 160]"
< 100,100 to 1000,"CCn1nccc1C(=O)N[C@H](c1cn2nc(C[C@H]3C[C@@H](C(F)(F)F)CNC3=O)c(C3CCOC(C)(C)C3)nc2n1)C1CCC(F)(F)CC1 (single isomer, unassigned) [Compound 163]"
< 100,100 to 1000,"CCn1nccc1C(=O)N[C@H](c1cn2nc(C[C@H]3C[C@@H](C(F)(F)F)CNC3=O)c(C3(C)CCCOC3)nc2n1)C1CCC(F)(F)CC1 (single isomer, unassigned) [Compound 165]"
< 100,100 to 1000,"CCn1nccc1C(=O)N[C@H](c1cn2nc(C[C@H]3C[C@@H](C(F)(F)F)CNC3=O)c(C3(C)CCOC3)nc2n1)C1CCC(F)(F)CC1 (single isomer, unassigned) [Compound 166]"
< 100,100 to 1000,"CCn1nccc1C(=O)N[C@H](c1cn2nc(C[C@H]3C[C@@H](C(F)(F)F)CNC3=O)c(C(C)C(F)(F)F)nc2n1)C1CCC(F)(F)CC1 (single isomer, unassigned) [Compound 174]"
< 100,100 to 1000,"CCn1nccc1C(=O)N[C@H](c1cn2nc(C[C@H]3C[C@@H](C(F)(F)F)CNC3=O)c(C(C)C(F)(F)F)nc2n1)C1CCC(F)(F)CC1 (single isomer, unassigned) [Compound 175]"
< 100,< 100,"CCn1nccc1C(=O)N[C@H](c1cn2nc(C[C@H]3C[C@@H](C(F)(F)F)CNC3=O)c(C3CCOC(C)(C)C3)nc2n1)C1CCC(F)(F)CC1 (single isomer, unassigned) [Compound 176]"
< 100,100 to 1000,"CCn1nccc1C(=O)N[C@H](c1cn2nc(C[C@H]3C[C@@H](C(F)(F)F)CNC3=O)c(C3(C)CCCOC3)nc2n1)C1CCC(F)(F)CC1 (single isomer, unassigned) [Compound 177]"
< 100,> 1000,"CCn1nccc1C(=O)N[C@H](c1cn2nc(C[C@H]3C[C@@H](C(F)(F)F)CNC3=O)c(C3(C)CCOC3)nc2n1)C1CCC(F)(F)CC1 (single isomer, unassigned) [Compound 178]"
< 100,< 100,"CCn1nccc1C(=O)N[C@H](c1cn2nc(C[C@H]3C[C@@H](C(F)(F)F)CNC3=O)c(C3CCOC3)nc2n1)[C@H]1CCCC(F)(F)C1 (single isomer, unassigned) [Compound 203]"
< 100,100 to 1000,"CCn1nccc1C(=O)N[C@H](c1cn2nc(CC3C[C@@H](C(F)(F)F)CNC3=O)c(N3CCO[C@@H](C)C3)nc2n1)[C@@H]1CCCC(F)(F)C1 (single isomer, unassigned) [Compound 207]"
< 100,100 to 1000,"CCn1nccc1C(=O)N[C@H](c1cn2nc(CC3C[C@@H](C(F)(F)F)CNC3=O)c(N3CCO[C@@H](C)C3)nc2n1)[C@@H]1CCCC(F)(F)C1 (single isomer, unassigned) [Compound 208]"
< 100,> 1000,"O=C(N[C@H](c1cn2nc(C[C@H]3C[C@@H](C(F)(F)F)CNC3=O)c(C3CCCOC3)nc2n1)[C@@H]1CCCC(F)(F)C1)c1nonc1C1CC1 (single isomer, unassigned) [Compound 209]"
< 100,100 to 1000,"O=C(N[C@H](c1cn2nc(C[C@H]3C[C@@H](C(F)(F)F)CNC3=O)c(C3CCCOC3)nc2n1)[C@@H]1CCCC(F)(F)C1)c1nonc1C1CC1 (single isomer, unassigned) [Compound 210]"
< 100,> 1000,"CCn1nccc1C(=O)N[C@@H](CCC(C)(C)C(F)(F)F)c1cn2nc(C[C@H]3C[C@@H](C(F)(F)F)CNC3=O)c(C3CCOCC3)nc2n1 (single isomer, unassigned) [Compound 217]"
< 100,100 to 1000,"CCn1nccc1C(=O)N[C@H](c1cn2nc(C[C@H]3C[C@@H](C(F)(F)F)CNC3=O)c(C[C@@H]3CCOC3)nc2n1)C1CCC(F)(F)CC1 (single isomer, unassigned) [Compound 224]"
< 100,100 to 1000,"CCn1nccc1C(=O)N[C@H](c1cn2nc(C[C@H]3C[C@@H](C(F)(F)F)CNC3=O)c(C[C@H]3CCOC3)nc2n1)C1CCC(F)(F)CC1 (single isomer, unassigned) [Compound 225]"
< 100,100 to 1000,"CCn1nccc1C(=O)N[C@H](c1cn2nc(C[C@H]3C[C@@H](C(F)(F)F)CNC3=O)c([C@@H](C)N3CCOCC3)nc2n1)C1CCC(F)(F)CC1 (single isomer, unassigned) [Compound 227]"
< 100,100 to 1000,"CCn1nccc1C(=O)N[C@H](c1cn2nc(C[C@H]3C[C@@H](C(F)(F)F)CNC3=O)c(CN3CCOC[C@H]3C)nc2n1)C1CCC(F)(F)CC1 (single isomer, unassigned) [Compound 231]"
< 100,100 to 1000,"CCn1nccc1C(=O)N[C@H](c1cn2nc(C[C@H]3C[C@@H](C(F)(F)F)CNC3=O)c(CN3CCOCC3C)nc2n1)C1CCC(F)(F)CC1 (single isomer, unassigned) [Compound 232]"
< 100,> 1000,"CCn1nccc1C(=O)N[C@H](c1cn2nc(C[C@H]3C[C@@H](C(F)(F)F)CNC3=O)c([C@H](C)C3CCOCC3)nc2n1)C1CCC(F)(F)CC1 (single isomer, unassigned) [Compound 251]"
< 100,100 to 1000,"CCn1nccc1C(=O)N[C@H](c1cn2nc(C[C@H]3C[C@@H](C(F)(F)F)CNC3=O)c([C@@H](C)C3CCOCC3)nc2n1)C1CCC(F)(F)CC1 (single isomer, unassigned) [Compound 252]"
< 100,100 to 1000,"CCn1nccc1C(=O)N[C@H](c1cn2nc(C[C@H]3C[C@@H](C(F)(F)F)CNC3=O)c([C@@H]3CCC(C)(C)OC3)nc2n1)C1CCC(F)(F)CC1 (single isomer, unassigned) [Compound 256]"
< 100,100 to 1000,"CCn1nccc1C(=O)N[C@H](c1cn2nc(C[C@H]3C[C@@H](C(F)(F)F)CNC3=O)c([C@H]3COCCC3(F)F)nc2n1)C1CCC(F)(F)CC1 (single isomer, unassigned) [Compound 257]"
< 100,100 to 1000,"CCn1nccc1C(=O)N[C@H](c1cn2nc(C[C@H]3C[C@@H](C(F)(F)F)CNC3=O)c([C@H]3CCC(C)(C)OC3)nc2n1)C1CCC(F)(F)CC1 (single isomer, unassigned) [Compound 258]"
< 100,< 100,"CCn1nccc1C(=O)N[C@H](c1cn2nc(C[C@H]3C[C@@H](C(F)(F)F)CNC3=O)c(C3COCCC3(F)F)nc2n1)C1CCC(F)(F)CC1 (single isomer, unassigned) [Compound 259]"
< 100,> 1000,"Cn1nccc1C(=O)N[C@H](c1cn2nc(C[C@H]3C[C@@H](C(F)(F)F)CNC3=O)c([C@H]3CCCOC3)nc2n1)C1CCC(F)(F)CC1 (single isomer, unassigned) [Compound 263]"
